From US8809545B2, “Aryl pyridine as aldosterone synthase inhibitors” (Novartis AG, priority 2009, dated 2014)

Columns and labels:
aldosterone synthase = molecular target: T1, aldosterone synthase (Homo sapiens, UniProt P19099); experiment: Aldosterone cell secretion in Ang II-stimulated NCI-H295R cells (SPA with anti-aldosterone antibody); assay type: cell-based; conditions: human adrenocortical carcinoma NCI-H295R cells, 1 μM Ang II, 24 h
T1 construct: host or cells: NCI-H295R
T1 sequence (P19099 25-503): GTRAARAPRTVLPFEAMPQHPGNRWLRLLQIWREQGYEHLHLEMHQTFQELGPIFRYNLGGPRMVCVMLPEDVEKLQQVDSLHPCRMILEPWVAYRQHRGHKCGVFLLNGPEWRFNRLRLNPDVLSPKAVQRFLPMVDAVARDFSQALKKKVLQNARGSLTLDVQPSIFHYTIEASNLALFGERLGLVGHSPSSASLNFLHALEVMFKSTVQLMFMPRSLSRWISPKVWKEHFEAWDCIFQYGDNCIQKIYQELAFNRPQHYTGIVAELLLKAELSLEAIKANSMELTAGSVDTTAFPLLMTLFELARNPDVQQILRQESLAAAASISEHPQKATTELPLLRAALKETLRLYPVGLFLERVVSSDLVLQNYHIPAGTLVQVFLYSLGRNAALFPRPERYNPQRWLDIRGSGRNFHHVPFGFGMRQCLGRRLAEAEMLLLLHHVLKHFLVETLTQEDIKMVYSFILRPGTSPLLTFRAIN
Description: In particular, the aldosterone synthase inhibitory activities in vitro can be determined by the following assay.
Human adrenocortical carcinoma NCI-H295R cell line was obtained from American Type Culture Collection (Manassas, Va.). Insulin/transferrin/selenium (ITS)-A supplement (100×), DMEM/F-12, antibiotic/antimycotic (100×), and fetal bovine serum (FBS) were purchased from Invitrogen (Carlsbad, Calif.). Anti-mouse PVT scintillation proximity assay (SPA) beads and NBS 96-well plates were obtained from GE Health Sciences (Piscataway, N.J.) and Corning (Acton, Mass.), respectively. Solid black 96-well flat bottom plates were purchased from Costar (Corning, N.Y.). Aldosterone and angiotensin (Ang II) were purchased from Sigma (St. Louis, Mo.). D-[1,2,6,7-^3H(N)]aldosterone was acquired from PerkinElmer (Boston, Mass.). Nu-serum was a product of BD Biosciences (Franklin Lakes, N.J.).
On the following day, cells are rinsed with 100 μL of phosphate-buffered saline (PBS) and incubated with 100 μL of treatment medium containing 1 μM Ang II and a compound at different concentrations in quadruplicate wells at 37° C. for 24 h. At the end of incubation, 50 μL of medium is withdrawn from each well for measurement of aldosterone production by an SPA using mouse anti-aldosterone monoclonal antibodies.
Measurement of aldosterone activity can also be performed using a 96-well plate format. […] Anti-mouse PVT SPA beads (50 μL) are then added to each well and incubated overnight at room temperature prior to counting in a Microbeta plate counter. The amount of aldosterone in each sample is calculated by comparing with a standard curve generated using known quantities of the hormone.
(§1) Inhibition of the release of certain steroids can be used as a measure of the respective enzyme inhibition by the added test compounds. The dose-dependent inhibition of enzymatic activity by a compound is calculated by means of an inhibition plot which is characterized by an IC50.
The inhibition plot is calculated by fitting a 4-parameter logistic function to the raw data points using the least squares method. The equation of the 4-parameter logistic function is calculated as follows: Y=(d−a)/((1+(x/c)b))+a, where: a=minimum data level, b=gradient, I […], d=maximum data level, x=inhibitor concentration.

[1] = molecular target: T2, CYP11B1 (steroid 11 β-hydroxylase) (Homo sapiens, UniProt P15538); experiment: Cortisol cell secretion in NCI-H295R cells (in vitro inhibitory activity for CYP11B1); assay type: cell-based; conditions: compound at 1 μM
T2 construct: the NCI-H295R cells have CYP11B1 (steroid 11 β-hydroxylase); host or cells: NCI-H295R
T2 sequence (P15538 25-503): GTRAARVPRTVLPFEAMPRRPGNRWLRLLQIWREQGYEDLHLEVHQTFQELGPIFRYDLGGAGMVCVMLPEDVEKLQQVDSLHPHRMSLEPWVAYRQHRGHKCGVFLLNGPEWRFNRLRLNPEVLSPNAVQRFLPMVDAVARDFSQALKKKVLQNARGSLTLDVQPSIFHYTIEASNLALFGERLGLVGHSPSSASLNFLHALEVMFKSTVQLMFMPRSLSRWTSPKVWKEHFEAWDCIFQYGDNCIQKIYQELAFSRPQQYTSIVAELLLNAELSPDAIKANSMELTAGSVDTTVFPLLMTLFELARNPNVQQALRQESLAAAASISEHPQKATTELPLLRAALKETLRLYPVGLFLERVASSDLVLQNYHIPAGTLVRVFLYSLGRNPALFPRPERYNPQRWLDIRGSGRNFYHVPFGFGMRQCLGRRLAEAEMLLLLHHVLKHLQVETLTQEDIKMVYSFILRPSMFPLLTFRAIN
Description: The in vitro inhibitory activities for CYP11B1 can be determined by the following assay.
The cell line NCI-H295R was originally isolated from an adrenocortical carcinoma and has been characterized in the literature through the stimulable secretion of steroid hormones and the presence of the enzymes essential for steroidogenesis. Thus, the NCI-H295R cells have CYP11B1 (steroid 11 β-hydroxylase). The cells show the physiological property of zonally undifferentiated human fetal adrenocortical cells which, however, have the capacity to produce the steroid hormones which are formed in the three, phenotypically distinguishable zones in the adult adrenal cortex.
The NCI-H295R cells (American Type Culture Collection, ATCC, Rockville, Md., USA) are grown in Dulbeoco's Modified Eagle'Ham F-12 Medium (DME/F12), which has been supplemented with Ulroser SF Serum (Soprachem, Cergy-Saint-Christophe, France), insulin, transferrin, selenite (I-T-S, Becton Dickinson Biosiences, Franklin lakes, N.J., USA) and antibiotics in 75 cm^2 cell culture vessels at 37° C. and in a 95% air-5% carbon dioxide atmosphere. The cells are subsequently transferred for colony formation into a 24-well incubation vessel. They are cultivated there in DME/F12 medium, which is now supplemented with 0.1% bovine serum instead of Ultroser SF for 24 hours. The experiment is initiated by cultivating the cells in DME/F12 medium which is supplemented with 0.1% bovine serum albumin and test compound, in the presence or absence of cell stimulants, for 72 hours. The test substance is added in a concentration range from 0.2 nanomolar to […]. Cell stimulants which can be used are angiotensin II ([…] or 100 nanomolar), potassium ions (16 millimolar), forskolin (10 micromolar) or a combination of two stimulants.
The excretion of aldosterone, cortisol, corticosterone and estradiol/estrone into the culture medium can be detected and quantified by commercially available, specific monoclonal antibodies in radioimmunoassays in accordance with the manufacturer's instructions.
as §1
The inhibition activity of CYP11B1 production can also be expressed in percentage inhibition (% inhibition) at a given concentration (e.g. % inhibition at 1 μM), which is the cortisol level when cell is treated with the given concentration of a compound of the invention (e.g. concentration of 1 μM) versus the cortisol excretion when cell is free of the compound of the invention. % inhibition cortisol production=[(Y′−X′)/Y′]×100 wherein X′ is the level of cortisol when the cell is treated with a compound of Formula I; and Y′ is the level of cortisol when the cell is free of compound of Formula I.

inhibition at 1 µM ([1]; NCI-H295R) [%]	IC50 (aldosterone synthase) [nM]	Compound	IC50 (aldosterone synthase; Enantiomer 1) [nM]	IC50 (aldosterone synthase; Enantiomer 2) [nM]	inhibition at 1 µM [1] [%]
25	–	CCS(=O)(=O)NC(c1cncc(-c2ccc(C#N)c(OC)c2)c1)C1CC1 (single isomer, unassigned) [N-(5-(4-cyano-3-methoxyphenyl)pyridin-3-yl)(cyclopropyl)methyl)ethanesulfonamide]	111	41	–
32	77	COc1cc(-c2cncc(NS(=O)(=O)C3CC3)c2)ccc1C#N [N-(5-(4-cyano-3-methoxyphenyl)pyridin-3-yl)cyclopropane-sulfonamide]	–	–	–
20	110	CCS(=O)(=O)NC(c1cncc(-c2ccc(OC(F)(F)F)cc2)c1)C1CC1 (centres unmarked) [N-(cyclopropyl(5-(4-(trifluoromethoxy)phenyl)pyridin-3-yl)methyl)ethanesulfonamide]	–	–	–
40	85	COc1cc(-c2cncc(CNS(C)(=O)=O)c2)ccc1C#N [N-((5-(4-cyano-3-methoxyphenyl)pyridin-3-yl)methyl)methane-sulfonamide]	–	–	–
21	22	CCS(=O)(=O)NC(c1cncc(-c2ccc(F)c(Cl)c2)c1)C1CC1 (centres unmarked) [N-((5-(3-chloro-4-fluorophenyl)pyridin-3-yl)(cyclopropyl)methyl)-ethanesulfonamide]	–	–	–
23	121	CCS(=O)(=O)NC(c1ccc(F)cc1)c1cncc(-c2ccc(C#N)c(C)c2)c1 (centres unmarked) [N-(5-(4-cyano-3-methylphenyl)pyridin-3-yl)(4-fluorophenyl)methyl)ethane-sulfonamide]	–	–	–
35	98	CCS(=O)(=O)N(CC(C)C)C(c1cncc(-c2ccc(C#N)c(Cl)c2)c1)C1CC1 (centres unmarked) [Ethanesulfonic acid {[5-(3-chloro-4-cyano-phenyl)-pyridin-3-yl]-cyclopropyl-methyl}-isobutyl-amide]	–	–	–
24	97	CCS(=O)(=O)NCc1cncc(-c2nc3ccc(Cl)cc3n2C)c1 [N-(5-(6-chloro-1-methyl-1H-benzo[d]imidazol-2-yl)pyridin-3-yl)methyl)ethanesulfonamide]	–	–	–

Compound	inhibition at 1 µM ([1]; NCI-H295R) [%]	IC50 (aldosterone synthase) [nM]	IC50 (aldosterone synthase; Enantiomer 1) [nM]	IC50 (aldosterone synthase; Enantiomer 2) [nM]	inhibition at 1 µM [1] [%]
CCS(=O)(=O)NC(C)(C)c1cncc(-c2ccc(C#N)c(Cl)c2)c1 [N-(2-(5-(3-chloro-4-cyanophenyl)pyridin-3-yl)propan-2-yl)ethanesulfonamide]	66	99	–	–	–
CCS(=O)(=O)NC(C)c1cncc(-c2ccc(C#N)c(Cl)c2)c1 (single isomer, unassigned) [N-(1-(5-(3-chloro-4-cyanophenyl)pyridin-3-yl)ethyl)ethanesulfonamide]	53	–	49	74	–
CCS(=O)(=O)NCc1cncc(-c2cc3ccc(Cl)nc3n2C)c1 [Ethanesulfonic acid [5-(6-chloro-1-methyl-1H-pyrrolo[2,3-b]pyridin-2-yl)-pyridin-3-ylmethyl]-amide]	–	8	–	–	40
CCS(=O)(=O)N[C@@H](c1cncc(-c2ccc(C#N)c(Cl)c2)c1)C1CC1 [(R)-N-((5-(3-chloro-4-cyanophenyl)pyridin-3-yl)(cyclopropyl)methyl)ethanesulfonamide]	29	56	–	–	–
